One assay deals with CD8+ T cells. The assay can be described thus: In vitro immunogenicity: T-cell priming with aAPCs loaded with peptide/MHC complexes and anti-CD28 antibody, pMHC multimer readout (Tables 19A, 19B). Format: cell-based, human. The conditions noted are these: for Wells positive [%]: in vitro immunogenicity of HLA class I peptides, pMHC multimer readout after priming of CD8+ T cells; for Share of positive wells (percent class): in vitro immunogenicity, healthy donors, three stimulation cycles. As to the method: In an aspect, the peptides are pre-screened for immunogenicity before being included in the warehouse. By way of example, and not limitation, the immunogenicity of the peptides included in the warehouse is determined by a method comprising in vitro T-cell priming through repeated stimulations of CD8+ T cells from healthy donors with artificial antigen presenting cells loaded with peptide/MHC complexes and anti-CD28 antibody.
In order to obtain information regarding the immunogenicity of the TUMAPs of the present invention, the inventors performed investigations using an in vitro T-cell priming assay based on repeated stimulations of CD8+ T cells with artificial antigen presenting cells (aAPCs) loaded with peptide/MHC complexes and anti-CD28 antibody.
In order to perform in vitro stimulations by artificial antigen presenting cells loaded with peptide-MHC complex (pMHC) and anti-CD28 antibody, the inventors first isolated CD8+ T cells from fresh HLA-A*02 leukapheresis products via positive selection using CD8 microbeads (Miltenyi Biotec, Bergisch-Gladbach, Germany) of healthy donors obtained from the University clinics Mannheim, Germany, after informed consent.
PBMCs and isolated CD8+ lymphocytes were incubated in T-cell medium (TCM) until use consisting of RPMI-Glutamax (Invitrogen, Karlsruhe, Germany) supplemented with 10% heat inactivated human AB serum (PAN-Biotech, Aidenbach, Germany), 100 U/ml Penicillin/100 μg/ml Streptomycin (Cambrex, Cologne, Germany), 1 mM sodium pyruvate (CC Pro, Oberdorla, Germany), 20 μg/ml Gentamycin (Cambrex). 2.5 ng/ml IL7 (PromoCell, Heidelberg, Germany) and 10 U/ml IL-2 (Novartis Pharma, Nurnberg, Germany) were also added to the TCM at this step.
Generation of pMHC/anti-CD28 coated beads, T-cell stimulations and readout was performed in a highly defined in vitro system using four different pMHC molecules per stimulation condition and 8 different pMHC molecules per readout condition.
The purified co-stimulatory mouse IgG2a anti human CD28 Ab 9.3 (Jung et al., 1987) was chemically biotinylated using Sulfo-N-hydroxysuccinimidobiotin as recommended by the manufacturer (Perbio, Bonn, Germany). Beads used were 5.6 μm diameter streptavidin coated polystyrene particles (Bangs Laboratories, Illinois, USA).
pMHC used for positive and negative control stimulations were A*0201/MLA-001 (peptide […] (SEQ ID NO. 303) from modified Melan-A/MART-1) and A*0201/DDX5-001 ([…] from DDX5, SEQ ID NO. 304), respectively.
800.000 beads/200 μl were coated in 96-well plates in the presence of 4×12.5 ng different biotin-pMHC, washed and 600 ng biotin anti-CD28 were added subsequently in a volume of 200 μl. Stimulations were initiated in 96-well plates by co-incubating […] CD8+ T cells with 2×10^5 washed coated beads in 200 μl TCM supplemented with 5 ng/ml IL-12 (PromoCell) for 3 days at 37° C. Half of the medium was then exchanged by fresh TCM supplemented with 80 U/ml IL-2 and incubating was continued for 4 days at 37° C. This stimulation cycle was performed for a total of three times. For the pMHC multimer readout using 8 different pMHC molecules per condition, a two-dimensional combinatorial coding approach was used as previously described (Andersen et al., 2012) with minor modifications encompassing coupling to 5 different fluorochromes. Finally, multimeric analyses were performed by staining the cells with Live/dead near IR dye (Invitrogen, Karlsruhe, Germany), CD8-FITC antibody clone SK1 (BD, Heidelberg, Germany) and fluorescent pMHC multimers. For analysis, a BD LSRII SORP cytometer equipped with appropriate lasers and filters was used. Peptide specific cells were calculated as percentage of total CD8+ cells. Evaluation of multimeric analysis was done using the FlowJo software (Tree Star, Oreg., USA). In vitro priming of specific multimer+ CD8+ lymphocytes was detected by comparing to negative control stimulations.

A further assay relates to HLA-A*02. The assay is described as follows: MHC binding assay, UV-ligand exchange with β2m ELISA, HLA-A*02 (Table 20). More on the design: species or system human. Particulars: binding to HLA-A*02 ranged by peptide exchange yield (UV-ligand exchange, β2m ELISA). The procedure, abridged: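 Peptide–MHC complexes made by UV-ligand exchange of a UV-cleavable peptide, diluted 100-fold and captured on streptavidin plates. Stabilized complexes detected by HRP anti-β2m ELISA (1 h, 37° C, A450). Exchange yield derived against refolded HLA-A*02:01/MLA-001 monomer standards (15-500 ng/ml).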

The test system of a further assay is HLA-A*24. The assay is described as follows: MHC binding assay, UV-ligand exchange with β2m ELISA, HLA-A*24 (Table 21). More on the design: species or system human. The conditions noted are these: binding to HLA-A*24 ranged by peptide exchange yield (UV-ligand exchange, β2m ELISA). From the text: Candidate peptides for T cell based therapies according to the present invention were further tested for their MHC binding capacity (affinity). The individual peptide-MHC complexes were produced by UV-ligand exchange, where a UV-sensitive peptide is cleaved upon UV-irradiation, and exchanged with the peptide of interest as analyzed. Only peptide candidates that can effectively bind and stabilize the peptide-receptive MHC molecules prevent dissociation of the MHC complexes. To determine the yield of the exchange reaction, an ELISA was performed based on the detection of the light chain ((β2m) of stabilized MHC complexes. The assay was performed as generally described in Rodenko et al. (Rodenko et al., 2006).
96 well MAXISorp plates (NUNC) were coated over night with 2 ug/ml streptavidin in PBS at room temperature, washed 4× and blocked for 1 h at 37° C. in 2% BSA containing blocking buffer. Refolded HLA-A*02:01/MLA-001 monomers served as standards, covering the range of 15-500 ng/ml. Peptide-MHC monomers of the UV-exchange reaction were diluted 100 fold in blocking buffer. Samples were incubated for 1 h at 37° C., washed four times, incubated with 2 ug/ml HRP conjugated anti-β2m for 1 h at 37° C., washed again and detected with TMB solution that is stopped with […]. Absorption was measured at 450 nm. Candidate peptides that show a high exchange yield (preferably higher than 50%, most preferred higher than 75%) are generally preferred for a generation and production of antibodies or fragments thereof, and/or T cell receptors or fragments thereof, as they show sufficient avidity to the MHC molecules and prevent dissociation of the MHC complexes.
Background: In an ELISA, binding on a coated surface is turned into a signal by an enzyme label.

Here are results for 38 substances from patent US20170189504A1, “NOVEL PEPTIDES AND COMBINATION OF PEPTIDES FOR USE IN IMMUNOTHERAPY AGAINST VARIOUS CANCERS” (immatics biotechnologies GmbH, priority 2015, published 2017).

In the case of “4 (KLMPGTYTL; listed as Homo sapiens) [compound 4]”, the “Wells positive [%]” value in the assay with CD8+ T cells is recorded as “+ (<20% = +)”. Also, in the assay on HLA-A*02, the Peptide exchange result is given as “++++ (≧75% = ++++)”.
The like results for “149 (ILNTHITEL; listed as Homo sapiens) [compound 149]” were, in that order, “+ (<20% = +)” and “+++ (50%-75% = +++)”.
The like results for “1 (LLYPEPWSV; listed as Homo sapiens) [compound 1]” were, in that order, “++ (20%-49% = ++)” and “++++ (≧75% = ++++)”.
On to “296 (TYVDSSHTI; listed as Homo sapiens) [compound 296]”, for which the “Share of positive wells (percent class)” value in the assay with CD8+ T cells is “+ (<20% = +)”.
As to “251 (ALSVLRLAL; listed as Homo sapiens) [compound 251]”, the “Wells positive [%]” value in the assay with CD8+ T cells is recorded as “++ (20%-49% = ++)”. Further, in the assay with HLA-A*02, the Peptide exchange entry is “+++ (50%-75% = +++)”.
The like results for “18 (ILLDLTDNRL; listed as Homo sapiens) [compound 18]” were, in that order, “+ (<20% = +)” and “+++ (50%-75% = +++)”.
The like results for “233 (HLFDAFVSV; listed as Homo sapiens) [compound 233]” were, in that order, “++ (20%-49% = ++)” and “+++ (50%-75% = +++)”.
“11 (ALSPSYLTV; listed as Homo sapiens) [compound 11]”: in the assay on CD8+ T cells, the “Wells positive [%]” value is “++ (20%-49% = ++)”. For the same substance, in the assay with HLA-A*02, the Peptide exchange entry is given as “+++ (50%-75% = +++)”.
The like results for “20 (GLSQITNQL; listed as Homo sapiens) [compound 20]” were, in that order, “++ (20%-49% = ++)” and “+++ (50%-75% = +++)”.
As for “6 (ALFDSLRHV; listed as Homo sapiens) [compound 6]”, the “Wells positive [%]” value with CD8+ T cells was “++ (20%-49% = ++)”. In the assay on HLA-A*02, the Peptide exchange entry is given as “+++ (50%-75% = +++)”.
The like results for “230 (KLQNIMMLL; listed as Homo sapiens) [compound 230]” were, in that order, “++++ (≧70% = ++++)” and “++ (20%-49% = ++)”.
The like results for “150 (VLYDRPLKI; listed as Homo sapiens) [compound 150]” were, in that order, “++ (20%-49% = ++)” and “+++ (50%-75% = +++)”.
“292 (GMMTAILGV; listed as Homo sapiens) [compound 292]”: in the assay with CD8+ T cells, the “Share of positive wells (percent class)” value is recorded as “+ (<20% = +)”.
With “291 (KLDETGNSL; listed as Homo sapiens) [compound 291]”, the “Share of positive wells (percent class)” value with CD8+ T cells is given as “+ (<20% = +)”.
Same read-out and setting: the entry for “298 (RYLEGTSCI; listed as Homo sapiens) [compound 298]” is “+ (<20% = +)”.
Take “297 (PFLQASPHF; listed as Homo sapiens) [compound 297]”: the “Share of positive wells (percent class)” value in the assay on CD8+ T cells was “++ (20%-49% = ++)”.
In the case of “195 (TYSVSFPMF; listed as Homo sapiens) [compound 195]”, in the assay with HLA-A*24, the Peptide exchange entry is recorded as “++++ (≧75% = ++++)”.
With “283 (TYGDAGLTYTF; listed as Homo sapiens) [compound 283]”, the Peptide exchange result in the assay with HLA-A*24 is recorded as “+++ (50%-75% = +++)”.
In the case of “198 (LYLDKATLI; listed as Homo sapiens) [compound 198]”, in the assay with HLA-A*24, the Peptide exchange entry was “+++ (50%-75% = +++)”.
Regarding “301 (AYKPGALTF; listed as Homo sapiens) [compound 301]”, the “Share of positive wells (percent class)” value with CD8+ T cells is given as “+ (<20% = +)”.
Same read-out and setting: the entry for “300 (AYVLRLETL; listed as Homo sapiens) [compound 300]” is “+ (<20% = +)”.
With “206 (EYQENFLSF; listed as Homo sapiens) [compound 206]”, the Peptide exchange result in the assay with HLA-A*24 is “+++ (50%-75% = +++)”.
“290 (KIVDFSYSV; listed as Homo sapiens) [compound 290]”: the “Share of positive wells (percent class)” value in the assay with CD8+ T cells was “++ (20%-49% = ++)”.
Regarding “282 (KFVDSTFYL; listed as Homo sapiens) [compound 282]”, the Peptide exchange entry in the assay on HLA-A*24 is on record as “++++ (≧75% = ++++)”.
On to “226 (VYRDETGELF; listed as Homo sapiens) [compound 226]”, for which the Peptide exchange result in the assay with HLA-A*24 is “+++ (50%-75% = +++)”.
On the same count and under the same terms, to “223 (KYIPYKYVI; listed as Homo sapiens) [compound 223]” belongs “+++ (50%-75% = +++)”.
On to “174 (VYVGGGQIIHL; listed as Homo sapiens) [compound 174]”, for which the Peptide exchange result in the assay with HLA-A*24 is listed as “+++ (50%-75% = +++)”.
The same measure, in the same setting: to “225 (YYVYIMNHL; listed as Homo sapiens) [compound 225]” belongs “+++ (50%-75% = +++)”; to “280 (RYPDNLKHLYL; listed as Homo sapiens) [compound 280]”, “++++ (≧75% = ++++)”; to “192 (SYALLTYMI; listed as Homo sapiens) [compound 192]”, “++++ (≧75% = ++++)”.
“179 (MYDSYWRQF; listed as Homo sapiens) [compound 179]”: the Peptide exchange result in the assay with HLA-A*24 was “++++ (≧75% = ++++)”.
Still for that read-out and setting: the entry for “175 (YYEVHKELF; listed as Homo sapiens) [compound 175]” is “++++ (≧75% = ++++)”.
Regarding “295 (YYPGVILGF; listed as Homo sapiens) [compound 295]”, the “Share of positive wells (percent class)” value with CD8+ T cells is recorded as “++ (20%-49% = ++)”.
For the substance “164 (KFSSFSLFF; listed as Homo sapiens) [compound 164]”, the Peptide exchange result in the assay with HLA-A*24 is “+++ (50%-75% = +++)”.
For the substance “293 (FLVDGSWSI; listed as Homo sapiens) [compound 293]”, the “Share of positive wells (percent class)” value in the assay on CD8+ T cells is “+ (<20% = +)”.
Turning to “188 (RYFKGLVF; listed as Homo sapiens) [compound 188]”, the Peptide exchange entry in the assay on HLA-A*24 is listed as “+++ (50%-75% = +++)”.
On to “286 (RYPDNLKHL; listed as Homo sapiens) [compound 286]”, for which, in the assay on HLA-A*24, the Peptide exchange entry was “++ (20%-49% = ++)”.
Same read-out and setting: to “277 (VYQGHTALL; listed as Homo sapiens) [compound 277]” belongs “++++ (≧75% = ++++)”.
